Key:
Assay type in all cases: in vivo
[1] = test system: ragweed (common ragweed, Ambrosia elatior); assay: Test A preemergence; details: Ambrosia artemisiifolia, pre-emergence, 240 h, preemergence, 0 to 100 scale where 0 is no effect and 100 is complete control, read-out: Ragweed plant response rating; for pest or weed control at 125 g/ha: 125 g ai/ha, approx. 10 d; for pest or weed control at 500 g/ha: 500 g ai/ha
Outline: (§1)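 Each rating is a visual injury score from 0 to 100 given about 10 d after treatment, judged against untreated controls kept alongside in the greenhouse. In loam soil–sand blend, seeds got a preemergence directed soil spray, while postemergence plants were 2 to 10 cm tall at spraying.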

[2] = test system: ragweed (common ragweed, Ambrosia elatior); assay: Test A postemergence; details: Ambrosia artemisiifolia, post-emergence, 240 h, postemergence; for pest or weed control at 125 g/ha: 125 g ai/ha, visual injury vs untreated controls after approx. 10 d, 0 = no effect, 100 = complete control, read-out: Ragweed plant response rating (0 to 100 scale); for pest or weed control at 500 g/ha: 500 g ai/ha, 0 to 100 scale, 0 is no effect, 100 is complete control, read-out: Ragweed plant response rating
Outline: as §1

[3] = test system: giant foxtail (Setaria faberii); assay: Test A postemergence; details: Setaria faberi, post-emergence, 240 h, postemergence; for pest or weed control at 125 g/ha: 125 g ai/ha, visual injury vs untreated controls after approx. 10 d, 0 = no effect, 100 = complete control, read-out: Foxtail, Giant plant response rating (0 to 100 scale); for pest or weed control at 500 g/ha: 500 g ai/ha, 0 to 100 scale, 0 is no effect, 100 is complete control, read-out: Foxtail, Giant plant response rating
Outline: as §1

[4] = test system: pigweed (Amaranthus retroflexus); assay: Test A postemergence; details: Amaranthus retroflexus, post-emergence, 240 h, postemergence; for pest or weed control at 125 g/ha: 125 g ai/ha, visual injury vs untreated controls after approx. 10 d, 0 = no effect, 100 = complete control, read-out: Pigweed plant response rating (0 to 100 scale); for pest or weed control at 500 g/ha: 500 g ai/ha, 0 to 100 scale, 0 is no effect, 100 is complete control, read-out: Pigweed plant response rating
Outline: as §1

[5] = test system: Galium (catchweed bedstraw, Galium aparine); assay: Test A postemergence; details: Galium, post-emergence, 240 h, postemergence; for pest or weed control at 125 g/ha: 125 g ai/ha, visual injury vs untreated controls after approx. 10 d, 0 = no effect, 100 = complete control, read-out: Galium plant response rating (0 to 100 scale); for pest or weed control at 500 g/ha: 500 g ai/ha, 0 to 100 scale, 0 is no effect, 100 is complete control, read-out: Galium plant response rating
Outline: as §1

[6] = test system: ryegrass, Italian (Italian ryegrass, Lolium multiflorum); assay: Test A postemergence; details: Lolium multiflorum, post-emergence, 240 h, postemergence; for pest or weed control at 125 g/ha: 125 g ai/ha, visual injury vs untreated controls after approx. 10 d, 0 = no effect, 100 = complete control, read-out: Ryegrass, Italian plant response rating (0 to 100 scale); for pest or weed control at 500 g/ha: 500 g ai/ha, 0 to 100 scale, 0 is no effect, 100 is complete control, read-out: Ryegrass, Italian plant response rating
Outline: as §1

[7] = test system: barnyardgrass (Echinochloa crus-galli); assay: Test A postemergence; details: Echinochloa crus-galli, post-emergence, 240 h, postemergence; for pest or weed control at 125 g/ha: 125 g ai/ha, visual injury vs untreated controls after approx. 10 d, 0 = no effect, 100 = complete control, read-out: Barnyardgrass plant response rating (0 to 100 scale); for pest or weed control at 500 g/ha: 500 g ai/ha, 0 to 100 scale, 0 is no effect, 100 is complete control, read-out: Barnyardgrass plant response rating
Outline: as §1

[8] = test system: wheat (Triticum aestivum); assay: Test A postemergence; details: Triticum aestivum, post-emergence, 240 h, postemergence; for plant injury at 125 g/ha: 125 g ai/ha, visual injury vs untreated controls after approx. 10 d, 0 = no effect, 100 = complete control, read-out: Wheat plant response rating (0 to 100 scale); for plant injury at 500 g/ha: 500 g ai/ha, 0 to 100 scale, 0 is no effect, 100 is complete control, read-out: Wheat plant response rating
Outline: as §1

[9] = test system: blackgrass (Alopecurus myosuroides); assay: Test A postemergence; details: Alopecurus myosuroides, post-emergence, 240 h, postemergence; for pest or weed control at 125 g/ha: 125 g ai/ha, visual injury vs untreated controls after approx. 10 d, 0 = no effect, 100 = complete control, read-out: Blackgrass plant response rating (0 to 100 scale); for pest or weed control at 500 g/ha: 500 g ai/ha, 0 to 100 scale, 0 is no effect, 100 is complete control, read-out: Blackgrass plant response rating
Outline: as §1

Kochia (Kochia scoparia) = assay: Test A postemergence; details: Bassia scoparia, post-emergence, 240 h, postemergence; for pest or weed control at 125 g/ha: 125 g ai/ha, visual injury vs untreated controls after approx. 10 d, 0 = no effect, 100 = complete control, read-out: Kochia plant response rating (0 to 100 scale); for pest or weed control at 500 g/ha: 500 g ai/ha, 0 to 100 scale, 0 is no effect, 100 is complete control, read-out: Kochia plant response rating
Outline: as §1

corn (Zea mays) = assay: Test A postemergence; details: Zea mays, post-emergence, 240 h, postemergence; for plant injury at 125 g/ha: 125 g ai/ha, visual injury vs untreated controls after approx. 10 d, 0 = no effect, 100 = complete control, read-out: Corn plant response rating (0 to 100 scale); for plant injury at 500 g/ha: 500 g ai/ha, 0 to 100 scale, 0 is no effect, 100 is complete control, read-out: Corn plant response rating
Outline: as §1

[10] = test system: barnyardgrass (Echinochloa crus-galli); assay: Test B flooded paddy test; details: Echinochloa crus-galli, 250 g ai/ha, Flood; 0 to 100 scale where 0 is no effect and 100 is complete control; read-out: Barnyardgrass plant response rating
Outline: (§2)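 Compound goes directly into floodwater once pots are flooded 3 cm above soil, targeting plants at two leaves; the water depth is then held for the test duration. Plants sit 13–15 d in a greenhouse and are rated visually, 100 denoting complete control.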

[11] = test system: ducksalad (Heteranthera limosa); assay: Test B flooded paddy test; details: Heteranthera limosa, 250 g ai/ha, Flood; 0 to 100 scale where 0 is no effect and 100 is complete control; read-out: Ducksalad plant response rating
Outline: as §2

rice (Oryra sativa) = assay: Test B flooded paddy test; details: Oryza sativa, 250 g ai/ha, Flood; 0 to 100 scale where 0 is no effect and 100 is complete control; read-out: Rice plant response rating
Outline: as §2

[12] = test system: sedge, umbrella (small-flower umbrella sedge, Cyperus difformis); assay: Test B flooded paddy test; details: Cyperus difformis, 250 g ai/ha, Flood; 0 to 100 scale where 0 is no effect and 100 is complete control; read-out: Sedge, Umbrella plant response rating
Outline: as §2

Row | Compound | pest or weed control at 125 g/ha [1] | pest or weed control at 500 g/ha [1] | pest or weed control at 125 g/ha [2] | pest or weed control at 500 g/ha [2] | pest or weed control at 125 g/ha [3] | pest or weed control at 500 g/ha [3] | pest or weed control at 125 g/ha [4] | pest or weed control at 500 g/ha [4] | pest or weed control at 125 g/ha [5] | pest or weed control at 500 g/ha [5] | pest or weed control at 125 g/ha [6] | pest or weed control at 500 g/ha [6] | pest or weed control at 125 g/ha [7] | pest or weed control at 500 g/ha [7] | plant injury at 125 g/ha [8] | plant injury at 500 g/ha [8] | pest or weed control at 125 g/ha [9] | pest or weed control at 500 g/ha [9] | pest or weed control at 125 g/ha (Kochia (Kochia scoparia)) | pest or weed control at 500 g/ha (Kochia (Kochia scoparia)) | other results
1 | CCc1ccc([C@H]2CNC(=O)[C@@H]2C(=O)Nc2cccc(F)c2C)cc1 [Compound 1177] | 0% | 30% | 0% | 0% | 50% | 70% | 0% | 0% | 20% | 50% | 40% | 40% | 70% | 90% | 20% | 30% | 60% | 70% | 0% | 0% | plant injury at 125 g/ha (corn (Zea mays)): 20%; plant injury at 500 g/ha (corn (Zea mays)): 40%; pest or weed control at 250 g/ha [10]: 70%; pest or weed control at 250 g/ha [11]: 95%; pest or weed control at 250 g/ha (rice (Oryra sativa)): 20%; pest or weed control at 250 g/ha [12]: 0%
2 | CCc1ccc([C@H]2CNC(=O)[C@@H]2C(=O)Nc2ccccc2SC)cc1 [Compound 1178] | 0% | 50% | 0% | 20% | 0% | 30% | 0% | 0% | 30% | 30% | 0% | 0% | 0% | 30% | 0% | 0% | 0% | 20% | 20% | 40% | plant injury at 125 g/ha (corn (Zea mays)): 0%; plant injury at 500 g/ha (corn (Zea mays)): 0%; pest or weed control at 250 g/ha [10]: 20%; pest or weed control at 250 g/ha [11]: 90%; pest or weed control at 250 g/ha (rice (Oryra sativa)): 20%; pest or weed control at 250 g/ha [12]: 0%
3 | O=C1NC[C@H](c2nccs2)[C@H]1C(=O)Nc1cccc(F)c1F [Compound 1182] | 0% | 0% | 0% | 0% | 0% | 0% | 0% | 0% | 0% | 0% | 0% | 0% | 0% | 0% | 0% | 0% | 0% | 0% | 0% | 0% | plant injury at 125 g/ha (corn (Zea mays)): 0%; plant injury at 500 g/ha (corn (Zea mays)): 0%; pest or weed control at 250 g/ha [10]: 0%; pest or weed control at 250 g/ha [11]: 0%; pest or weed control at 250 g/ha (rice (Oryra sativa)): 0%; pest or weed control at 250 g/ha [12]: 0%

From patent publication US12077503B2, “Substituted cyclic amides and their use as herbicides” (FMC CORPORATION, priority 2015, dated 2024)
